# Key:
# [1] = test system: panel of 9 tasters (8 trained sensory panellists and 1 Evolve employee); assay: Agreed reference intensity scores for the commercial Reb A reference sample (vocabulary determination); type: in vivo; details: agreed approximate intensity score, 0-100 scale; 0.0385% w/v
# Protocol: (§1) A sensory evaluation of the sample isolated in Example 5 was conducted by a commercial consumer research and sensory analysis company, using a rapid profiling protocol. The sensory profile of the yeast fermented Reb A product was compared to that of a commercially available RebA product by a panel of 9 tasters (8 trained sensory panellists and 1 Evolve employee), over a two hour period. […] Both products were dissolved in Highland Springs bottled mineral water (Highland Spring Group, Blackford, Pertishire, United Kingdom) at 0.0385% w/v, which is approximately equivalent in sweetness to 8% sucrose.
# An appropriate vocabulary was determined using the commercial Reb A solution as a reference sample. As a starting point, the panel used an attribute vocabulary agreed to for previous sweetener sensory analyses, including sweetness onset time, sweetness build, sweetness, bitterness, etc. Panelists discussed and agreed which of the attributes were present in the reference sample and also agreed on approximate intensity scores on a 0-100 scale for each attribute. Table 15 describes each characteristic that was assessed and how each characteristic was scored for the reference sample.
# [2] = test system: panel of 9 tasters (8 trained sensory panellists and 1 Evolve employee); assay: Sensory evaluation by rapid profiling protocol, blinded samples, two replicates; type: in vivo; details: for Sweetness build Fl. mean score / Sweetness onset Fl. mean score: after 1st sip, mean of Rep 1 and Rep 2, 0.0385% w/v in mineral water; for Sweetness build Fl. mean score / Sweetness onset Fl. mean score / Acid At. mean score / Artificial sweetness At. mean score / Bitter At. mean score / Overall Sweetness At. mean score / liquorice At. mean score / Acid Fl. mean score / Artificial sweetness Fl. mean score / Bitter Fl. mean score / Liquorice FL mean score / Overall Sweetness Fl. mean score / Body/ thickness Mf. mean score / Mouth coating Mf. mean score / Mouth drying Mf. mean score / Mouth watering Mf. mean score / Tingling Mf. mean score: 0-100 scale; for Acid At. mean score / Artificial sweetness At. mean score / Bitter At. mean score / Overall Sweetness At. mean score / liquorice At. mean score: aftertaste; for Acid At. mean score / Artificial sweetness At. mean score / Bitter At. mean score / Overall Sweetness At. mean score / liquorice At. mean score / Acid Fl. mean score / Artificial sweetness Fl. mean score / Bitter Fl. mean score / Liquorice FL mean score / Overall Sweetness Fl. mean score / Body/ thickness Mf. mean score / Mouth coating Mf. mean score / Mouth drying Mf. mean score / Mouth watering Mf. mean score / Tingling Mf. mean score: mean of 2 replicates, 0.0385% w/v; for Acid Fl. mean score / Artificial sweetness Fl. mean score / Bitter Fl. mean score / Liquorice FL mean score / Overall Sweetness Fl. mean score: flavor; for Acid Fl. mean score / Artificial sweetness Fl. mean score / Bitter Fl. mean score / Liquorice FL mean score / Overall Sweetness Fl. mean score / Body/ thickness Mf. mean score: after second and third sip; for Body/ thickness Mf. mean score / Mouth coating Mf. mean score / Mouth drying Mf. mean score / Mouth watering Mf. mean score / Tingling Mf. mean score: mouthfeel
# Protocol: as §1
# After a break, the panelists were presented one blinded sample of the yeast-derived RebA solution and one blinded sample of the commercial RebA solution. Sample were presented in a balanced order to the panelists. For each blinded sample, panelists carried out the following tasting procedure. Panelists were instructed take one sip of the sample and score the Sweetness Build and Sweetness Onset attributes. A second and third sip of the sample were then taken, and panelists were instructed to score Flavor Attributes and Mouth Feel attribute Body/thickness. Each panelist then took a final sip of the sample and was asked to score Aftertaste and Mouth Sensations at 20 seconds and 120 seconds after the final sip.
# All panellist scores were entered into a computer using Compusense® data collection software (Compusense, Guelph, Ontario, Canada). Agreed reference scores were marked on the scales as a guide. A rest period of 5 minutes duration was observed between samples and palate cleansers of Carr's® water crackers (Kellogg's, Battle Creek, Mich.) and Highland Spring bottled mineral water applied during this time.
# After one replicate of testing had been completed, panelists discussed differences between products. Panelists thought there were some subtle differences between products but no new flavors, off flavors, or mouth sensations were experienced. It was therefore decided to carry out a second replicate testing of the two Reb A samples using the same vocabulary and different blinding codes. The same tasting procedure was used for the second replicate as that used for the first replicate.
# Mean scores were calculated for each attribute and sample over the two replicates (Rep 1 and Rep 2). Table 16 provides the mean scores for each attribute. Scores in bold shown a statistically significant difference between the two RebA samples.
# [3] = first block (20 seconds after final sip)
# [4] = second block (120 seconds after final sip)
structure (smiles),measurement,setting,value
"C=C1C[C@@]23CC[C@H]4[C@@](C)(CCC[C@@]4(C)C(=O)O[C@@H]4O[C@H](CO)[C@@H](O)[C@H](O)[C@H]4O)[C@@H]2CC[C@]1(O[C@@H]1O[C@H](CO)[C@@H](O)[C@H](O[C@@H]2O[C@H](CO)[C@@H](O)[C@H](O)[C@H]2O)[C@H]1O[C@@H]1O[C@H](CO)[C@@H](O)[C@H](O)[C@H]1O)C3 [Commercial RebA, rebaudioside A]",Acidic (Flavor/Aftertaste) Score after 3 d sip (20 sec),[1],10
same,Acidic (Flavor/Aftertaste) Score after 3 d sip (2 min),[1],10
same,Acidic (Flavor/Aftertaste) Score after 3 d sip (immediate),[1],10
same,Artificial sweetness (Flavor/Aftertaste) Score after 3 d sip (20 sec),[1],35
same,Artificial sweetness (Flavor/Aftertaste) Score after 3 d sip (2 min),[1],20
same,Artificial sweetness (Flavor/Aftertaste) Score after 3 d sip (immediate),[1],55
same,Bitter (Flavor/Aftertaste) Score after 3 d sip (20 sec),[1],20
same,Bitter (Flavor/Aftertaste) Score after 3 d sip (2 min),[1],20
same,Bitter (Flavor/Aftertaste) Score after 3 d sip (immediate),[1],10
same,Body/thickness (Mouthfeel) Score after 3 d sip (immediate),[1],40
same,Liquorice (Flavor/Aftertaste) Score after 3 d sip (20 sec),[1],35
same,Liquorice (Flavor/Aftertaste) Score after 3 d sip (2 min),[1],30
same,Liquorice (Flavor/Aftertaste) Score after 3 d sip (immediate),[1],30
same,Mouth coating (Mouthfeel) Score after 3 d sip (20 sec),[1],30
same,Mouth coating (Mouthfeel) Score after 3 d sip (2 min),[1],30
same,Mouth drying (Mouthfeel) Score after 3 d sip (20 sec),[1],35
same,Mouth drying (Mouthfeel) Score after 3 d sip (2 min),[1],35
same,Mouth watering (Mouthfeel) Score after 3 d sip (20 sec),[1],0
same,Mouth watering (Mouthfeel) Score after 3 d sip (2 min),[1],20
same,Overall Sweetness (Flavor/Aftertaste) Score after 3 d sip (20 sec),[1],50
same,Overall Sweetness (Flavor/Aftertaste) Score after 3 d sip (2 min),[1],50
same,Overall Sweetness (Flavor/Aftertaste) Score after 3 d sip (immediate),[1],70
same,Sweetness build (Flavor) Score after 1st sip,[1],30
same,Sweetness onset (Flavor) Score after 1st sip,[1],5
same,Tingling (Mouthfeel) Score after 3 d sip (20 sec),[1],10
same,Tingling (Mouthfeel) Score after 3 d sip (2 min),[1],5
same,Sweetness build Fl. mean score,[2],34.5
same,Sweetness onset Fl. mean score,[2],5.6
same,Acid At. mean score,[2]; [3],8.5
same,Artificial sweetness At. mean score,[2]; [3],40.8
same,Bitter At. mean score,[2]; [3],22.1
same,Overall Sweetness At. mean score,[2]; [3],52.8
same,liquorice At. mean score,[2]; [3],21.1
same,Acid At. mean score,[2]; [4],8.9
same,Artificial sweetness At. mean score,[2]; [4],32.6
same,Bitter At. mean score,[2]; [4],20.6
same,Overall Sweetness At. mean score,[2]; [4],49.6
same,liquorice At. mean score,[2]; [4],16.3
same,Acid Fl. mean score,[2],10.6
same,Artificial sweetness Fl. mean score,[2],54.0
same,Bitter Fl. mean score,[2],20.7
same,Liquorice FL mean score,[2],18.0
same,Overall Sweetness Fl. mean score,[2],61.7
same,Body/ thickness Mf. mean score,[2],39.4
same,Mouth coating Mf. mean score,[2]; [3],27.4
same,Mouth drying Mf. mean score,[2]; [3],40.1
same,Mouth watering Mf. mean score,[2]; [3],10.9
same,Tingling Mf. mean score,[2]; [3],13.0
same,Mouth coating Mf. mean score,[2]; [4],26.3
same,Mouth drying Mf. mean score,[2]; [4],42.7
same,Mouth watering Mf. mean score,[2]; [4],14.7
same,Tingling Mf. mean score,[2]; [4],12.9
same,sweetness build score compared with the yeast derived RebA sample,"[2]; time to peak in sweetness intensity, 95% confidence level",significantly longer
"C=C1C[C@@]23CC[C@H]4[C@@](C)(CCC[C@@]4(C)C(=O)O[C@@H]4O[C@H](CO)[C@@H](O)[C@H](O)[C@H]4O)[C@@H]2CC[C@]1(O[C@@H]1O[C@H](CO)[C@@H](O)[C@H](O[C@@H]2O[C@H](CO)[C@@H](O)[C@H](O)[C@H]2O)[C@H]1O[C@@H]1O[C@H](CO)[C@@H](O)[C@H](O)[C@H]1O)C3 [Yeast derived Reb A, rebaudioside A]",Sweetness build Fl. mean score,[2],30.2
same,Sweetness onset Fl. mean score,[2],5.5
same,Acid At. mean score,[2]; [3],6.9
same,Artificial sweetness At. mean score,[2]; [3],33.8
same,Bitter At. mean score,[2]; [3],17.2
same,Overall Sweetness At. mean score,[2]; [3],49.6
same,liquorice At. mean score,[2]; [3],19.2
same,Acid At. mean score,[2]; [4],5.5
same,Artificial sweetness At. mean score,[2]; [4],30.0
same,Bitter At. mean score,[2]; [4],18.1
same,Overall Sweetness At. mean score,[2]; [4],46.2
same,liquorice At. mean score,[2]; [4],16.2
same,artificial sweetness score compared with the commercial RebA sample,[2]; at 20 seconds,significantly less
same,bitter score compared with the commercial RebA sample,"[2]; at 20 seconds, not statistically significantly different",lower
same,Acid Fl. mean score,[2],8.3
same,Artificial sweetness Fl. mean score,[2],41.8
same,Bitter Fl. mean score,[2],11.8
same,Liquorice FL mean score,[2],17.2
same,Overall Sweetness Fl. mean score,[2],58.5
same,Body/ thickness Mf. mean score,[2],37.1
same,Mouth coating Mf. mean score,[2]; [3],28.9
same,Mouth drying Mf. mean score,[2]; [3],40.8
same,Mouth watering Mf. mean score,[2]; [3],10.1
same,Tingling Mf. mean score,[2]; [3],9.8
same,Mouth coating Mf. mean score,[2]; [4],24.7
same,Mouth drying Mf. mean score,[2]; [4],39.8
same,Mouth watering Mf. mean score,[2]; [4],15.7
same,Tingling Mf. mean score,[2]; [4],8.8
same,off flavors,[2]; panellist reports,no reports of off flavors
